US12240844B2 (Voronoi, Inc., priority 2019, dated 2025)

How the values were obtained:
Type in all cases: biochemical
[1] = target: T1, human GST-DYRK1A (full length) (Homo sapiens, UniProt Q13627); experiment: GST-DYRK1A enzyme inhibition, ADP-Glo kinase assay; settings: read-out: DYRK1 IC50
T1 construct: purified human GST-DYRK1A (full length, Thermo scientifics) enzyme; GST; purchased Thermo scientifics
How it was run: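 ADP-Glo luminescence quantified kinase activity after a 1 h, 25° C reaction of 10 ng full-length GST-tagged human DYRK1A, substrate and 10 uM ATP in Tris-HCl buffer pH 7.4 with MgCl2, BSA and DTT. Triplicate IC50 values (nM) calculated relative to untreated solvent control.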

[2] = target: T2, human GST-CLK1 (129-end) (Homo sapiens, UniProt P49759); experiment: GST-CLK1 enzyme inhibition, ADP-Glo kinase assay; settings: ATP 10 uM
T2 construct: purified human GST-CLK1 (129-end, Signalchem) enzyme; GST; purchased Signalchem
T2 sequence (P49759 129-484 limits assumed): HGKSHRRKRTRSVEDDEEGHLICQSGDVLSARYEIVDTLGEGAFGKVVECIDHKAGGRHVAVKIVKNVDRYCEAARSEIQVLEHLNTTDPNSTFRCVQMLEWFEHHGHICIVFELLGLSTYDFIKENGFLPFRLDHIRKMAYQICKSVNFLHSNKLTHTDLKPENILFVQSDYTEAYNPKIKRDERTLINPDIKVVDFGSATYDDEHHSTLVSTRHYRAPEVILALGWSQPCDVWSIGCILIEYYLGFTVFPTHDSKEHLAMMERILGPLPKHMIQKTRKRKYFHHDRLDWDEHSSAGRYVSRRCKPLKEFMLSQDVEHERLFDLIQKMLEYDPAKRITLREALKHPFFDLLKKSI
How it was run: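 ADP formation was read by ADP-Glo luminescence after 1 h at 25° C with 3 ng human GST-CLK1 (129-end), substrate and 10 uM ATP in Tris pH 7.4 buffer containing MgCl2, BSA and DTT. Inhibition relative to untreated solvent control gave IC50 (nM), run in triplicate.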

[3] = target: LRRK2 (Homo sapiens, UniProt Q5S007); experiment: LRRK2 enzyme inhibition, ADP-Glo kinase assay; set-up: purchased Invitrogen PR8604B
Chain of LRRK2 (Q5S007 970-2527 limits assumed): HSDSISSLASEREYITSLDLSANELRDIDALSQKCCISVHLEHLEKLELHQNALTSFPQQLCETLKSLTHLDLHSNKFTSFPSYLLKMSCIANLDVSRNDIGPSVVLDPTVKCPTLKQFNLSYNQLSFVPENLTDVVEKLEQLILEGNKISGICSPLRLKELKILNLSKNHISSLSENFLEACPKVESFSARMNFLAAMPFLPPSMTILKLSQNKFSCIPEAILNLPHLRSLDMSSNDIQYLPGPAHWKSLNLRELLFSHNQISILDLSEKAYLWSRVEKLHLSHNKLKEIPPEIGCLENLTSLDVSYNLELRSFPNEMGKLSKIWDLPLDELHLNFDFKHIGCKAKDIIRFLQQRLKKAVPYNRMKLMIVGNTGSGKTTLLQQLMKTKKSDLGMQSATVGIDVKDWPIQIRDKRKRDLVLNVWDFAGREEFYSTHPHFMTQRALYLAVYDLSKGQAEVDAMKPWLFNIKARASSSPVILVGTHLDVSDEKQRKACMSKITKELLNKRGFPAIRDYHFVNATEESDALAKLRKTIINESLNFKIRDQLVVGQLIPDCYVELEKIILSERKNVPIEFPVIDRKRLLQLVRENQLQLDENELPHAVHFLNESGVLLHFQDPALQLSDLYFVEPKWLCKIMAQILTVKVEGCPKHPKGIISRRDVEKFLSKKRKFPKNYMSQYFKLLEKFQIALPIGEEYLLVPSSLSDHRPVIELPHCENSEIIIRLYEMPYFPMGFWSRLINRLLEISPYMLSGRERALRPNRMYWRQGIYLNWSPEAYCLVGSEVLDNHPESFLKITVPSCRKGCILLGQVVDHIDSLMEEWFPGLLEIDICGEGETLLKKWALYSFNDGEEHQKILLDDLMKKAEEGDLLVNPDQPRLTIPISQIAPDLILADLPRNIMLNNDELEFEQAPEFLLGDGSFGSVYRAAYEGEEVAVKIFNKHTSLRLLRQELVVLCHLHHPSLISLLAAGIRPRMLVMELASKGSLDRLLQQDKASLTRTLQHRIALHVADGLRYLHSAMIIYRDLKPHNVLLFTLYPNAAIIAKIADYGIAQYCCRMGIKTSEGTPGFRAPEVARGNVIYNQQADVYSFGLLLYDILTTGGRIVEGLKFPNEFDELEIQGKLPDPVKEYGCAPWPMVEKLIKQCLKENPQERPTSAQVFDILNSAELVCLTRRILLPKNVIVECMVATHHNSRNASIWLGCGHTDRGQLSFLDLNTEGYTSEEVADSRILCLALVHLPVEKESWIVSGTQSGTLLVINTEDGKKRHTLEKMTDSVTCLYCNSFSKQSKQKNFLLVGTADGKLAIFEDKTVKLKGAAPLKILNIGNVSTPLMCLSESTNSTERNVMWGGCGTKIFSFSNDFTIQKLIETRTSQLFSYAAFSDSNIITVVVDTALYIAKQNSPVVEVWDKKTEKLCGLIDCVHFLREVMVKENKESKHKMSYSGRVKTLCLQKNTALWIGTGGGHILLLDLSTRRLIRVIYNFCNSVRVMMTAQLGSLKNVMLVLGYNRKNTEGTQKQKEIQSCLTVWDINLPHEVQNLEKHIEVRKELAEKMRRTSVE
Procedure: In order to evaluate the inhibitory activity of the compounds according to the present invention on LRRK2, LRRK2 (G2019S), DYRK1, CLK1 and TTK kinases, the following experiment was performed.
Example compounds were reacted with the purified human LRRK2 (Invitrogen #PR8604B) enzyme to evaluate the enzyme inhibitory ability as follows. The reaction buffer was used as the composition of 40 mM Tris-HCl pH7.4, 20 mM MgCl2, 0.5 mg/ml BSA and 50 μM DTT, and the reaction of all test materials was performed on the reaction buffer. The compound was diluted with 10 mM DMSO stock in 12 steps by a serial dilution method, and the enzyme activity was measured at the final compound concentrations of 50, 10, 2, 0.4, 0.08, 0.016, 0.0032, 0.00064, 0.000128, 0.0000256, 0.00000512 and 0.000001024 μM. In the test, the human LRRK2 (25 ng) enzyme was reacted with the purified ATP (10 μM) and an enzyme substrate ([…]) at 25° C. for 2 hours, and then the enzyme activity was identified using the in vitro ADP-Glo™ kinase assay (promega). The enzyme activity reaction liquid, an ADP-Glo reaction liquid and an enzyme potency detection solution were reacted in a ratio of 2:2:1, and the degree of inhibition of enzyme activity was measured by Luminescence. The degree of inhibition of enzyme activity according to the treatment concentrations of the respective compounds was calculated based on the fluorescence of the enzyme activity of a solvent control group that was not treated with the compound, where the concentration of each compound to inhibit enzyme activity inhibition by 50% was determined as an IC50 (nM) value and obtained using Prism (Version 5.01, GraphPad) software.
In the table below, the following designations were used for the evaluation of enzyme inhibitory ability.

[4] = target: LRRK2 (G2019S) (Homo sapiens, UniProt Q5S007, G2019S); experiment: LRRK2 G2019S enzyme inhibition, ADP-Glo kinase assay; set-up: purchased SignalChem L10-12GG
Chain of LRRK2 (G2019S) (Q5S007 970-2527 G2019S limits assumed): as the sequence (Q5S007 970-2527 limits assumed) above, with G1050S counted along it
How it was run: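 Activity read as ADP-Glo luminescence, normalized to untreated solvent control, with IC50 (nM) fitted over 12 final compound levels (top 50 μM). Reaction: 2 h, 25° C, human LRRK2 G2019S 16 ng, ATP 25 μM, substrate 0.2 μg, in Tris-HCl pH 7.4 with MgCl2, BSA and DTT.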

| Compound | IC50 [1] | IC50 [2] | IC50 [3] | IC50 [4] |
| --- | --- | --- | --- | --- |
| CCNc1cc(Nc2ccc(P3(=O)CCN(C4CC4)CC3)cc2OC)nc2[nH]cc(C#N)c12 [Example 147, 6-((4-(1-cyclopropyl-4-oxido-1,4-azaphosphinan-4-yl)-2-methoxyphenyl)amino)-4-(ethylamino)-1H-pyrrolo[2,3-b]pyridine-3-carbonitrile] | < 100 nM | 301 to 1000 nM | < 100 nM | – |
| CN(C)CCNc1cc(Nc2ccc(C(=O)N3CCOCC3)c3c2OCCO3)nc2[nH]cc(C(F)(F)F)c12 [Example 171, (8-((4-((2-(dimethylamino)ethyl)amino)-3-(trifluoromethyl)-1H-pyrrolo[2,3-b]pyridin-6-yl)amino)-2,3-dihydrobenzo [b] [1,4]dioxin-5-yl)(morpholino) methanone] | 301 to 1000 nM | 301 to 1000 nM | < 100 nM | – |
| CNc1cc(Nc2ccc(P3(=O)CCN(C4COC4)CC3)cc2OC)nc2[nH]cc(C#N)c12 [Example 142, 6-((2-methoxy-4-(1-(oxetan-3-yl)-4-oxido-1,4-azaphosphinan-4-yl)phenyl)amino)-4-(methylamino)-1H-pyrrolo[2,3-b]pyridine-3-carbonitrile] | 101 to 300 nM | 301 to 1000 nM | < 100 nM | – |
| CNc1cc(Nc2ccc(S(C)(=N)=O)cc2OC)nc2[nH]cc(C(F)(F)F)c12 (stereo not drawn) [Example 103, N^6-(2-methoxy-4-(s-methylsulfonylimidoyl)phenyl)-N^4-methyl-3-(trifluoromethyl)-1H-pyrrolo[2,3-b]pyridine-4,6-diamine] | 301 to 1000 nM | 301 to 1000 nM | 101 to 300 nM | – |
| CCCNc1cc(Nc2ccc(P3(=O)CCN(C4CC4)CC3)cc2OC)nc2[nH]cc(C(F)(F)F)c12 [Example 45, 1-cyclopropyl-4-(3-methoxy-4-((4-(propylamino)-3-(trifluoromethyl)-1H-pyrrolo[2,3-b]pyridin-6-yl)amino)phenyl)-1,4-azaphosphinane 4-oxide] | 101 to 300 nM | 301 to 1000 nM | 101 to 300 nM | – |
| COC[C@@H](C)Nc1cc(Nc2ccc(C(=O)N3CCOCC3)c3c2OCCO3)nc2[nH]cc(C(F)(F)F)c12 [Example 159, (R)-(8-((4-((1-methoxypropan-2-yl)amino)-3-(trifluoromethyl)-1H-pyrrolo[2,3-b]pyridin-6-yl)amino)-2,3-dihydrobenzo [b] [1,4]dioxin-5-yl)(morpholino) methanone] | 101 to 300 nM | < 100 nM | < 100 nM | – |
| CCNc1cc(Nc2ccc(P3(=O)CCN(C(C)=O)CC3)cc2OC)nc2[nH]cc(C#N)c12 [Example 145, 6-((4-(1-acetyl-4-oxido-1,4-azaphosphinan-4-yl)-2-methoxyphenyl)amino)-4-(ethylamino)-1H-pyrrolo[2,3-b]pyridine-3-carbonitrile] | 101 to 300 nM | 301 to 1000 nM | < 100 nM | – |
| CNc1cc(Nc2ccc(C(=O)N3C[C@@H]4C[C@H]3CO4)c3c2OCCO3)nc2[nH]cc(C(F)(F)F)c12 [Example 43, ((1S,4S)-2-oxa-5-azabicyclo[2.2.1]heptan-5-yl)(8-((4-(methylamino)-3-(trifluoromethyl)-1H-pyrrolo[2,3-b]pyridin-6-yl)amino)-2,3-dihydrobenzo[b] [1,4]dioxin-5-yl)methanone] | < 100 nM | < 100 nM | < 100 nM | – |
| COCCNc1cc(Nc2ccc(P3(=O)CCN(C4COC4)CC3)cc2OC)nc2[nH]cc(C#N)c12 [Example 144, 6-((2-methoxy-4-(1-(oxetan-3-yl)-4-oxido-1,4-azaphosphinan-4-yl)phenyl)amino)-4-((2-methoxyethyl)amino)-1H-pyrrolo[2,3-b]pyridine-3-carbonitrile] | 301 to 1000 nM | 101 to 300 nM | < 100 nM | – |
| CN(C)c1cc(Nc2ccc(C(=O)N3CCC(N4CCOCC4)CC3)c3c2OCCO3)nc2[nH]cc(C(F)(F)F)c12 [Example 50, (8-((4-(dimethylamino)-3-(trifluoromethyl)-1H-pyrrolo[2,3-b]pyridin-6-yl)amino)-2,3-dihydrobenzo[b] [1,4]dioxin-5-yl)(4-morpholinopiperidin-1-yl)methanone] | 301 to 1000 nM | < 100 nM | < 100 nM | – |
| CCNc1cc(Nc2ccc(P3(=O)CCN(C4COC4)CC3)cc2OC)nc2[nH]cc(C#N)c12 [Example 143, 4-(ethylamino)-6-((2-methoxy-4-(1-(oxetan-3-yl)-4-oxido-1,4-azaphosphinan-4-yl)phenyl)amino)-1H-pyrrolo[2,3-b]pyridine-3-carbonitrile] | 301 to 1000 nM | 101 to 300 nM | < 100 nM | – |
| CCN(C)c1cc(Nc2ccc(C(=O)N3CCC(N4CCOCC4)CC3)c3c2OCCO3)nc2[nH]cc(C(F)(F)F)c12 [Example 51, (8-((4-(ethyl(methyl)amino)-3-(trifluoromethyl)-1H-pyrrolo[2,3-b]pyridin-6-yl)amino)-2,3-dihydrobenzo [b] [1,4]dioxin-5-yl)(4-morpholinopiperidin-1-yl)methanone] | 301 to 1000 nM | 101 to 300 nM | 101 to 300 nM | – |

Now from value to compound:

| IC50 [1] | IC50 [2] | IC50 [3] | IC50 [4] | Compound |
| --- | --- | --- | --- | --- |
| 301 to 1000 nM | 301 to 1000 nM | < 100 nM | – | COc1cc(P2(=O)CCN(C3CC3)CC2)ccc1Nc1cc(C2CC2)c2c(C(F)(F)F)c[nH]c2n1 [Example 218, 1-cyclopropyl-4-(4-((4-cyclopropyl-3-(trifluoromethyl)-1H-pyrrolo[2,3-b]pyridin-6-yl)amino)-3-methoxyphenyl)-1,4-azaphosphinane 4-oxide] |
| 301 to 1000 nM | 301 to 1000 nM | < 100 nM | – | CCOc1cc(Nc2ccc(C(=O)N3CCOCC3)c3c2OCCO3)nc2[nH]cc(C(F)(F)F)c12 [Example 231, (8-((4-ethoxy-3-(trifluoromethyl)-1H-pyrrolo[2,3-b]pyridin-6-yl)amino)-2,3-dihydrobenzo[b] [1,4]dioxin-5-yl)(morpholino) methanone] |
| 301 to 1000 nM | 301 to 1000 nM | 301 to 1000 nM | – | COc1cc(S(C)(=O)=O)ccc1Nc1cc(NC2CCC2)c2c(C(F)(F)F)c[nH]c2n1 [Example 204, N^4-cyclobutyl-N^6-(2-methoxy-4-(methylsulfonyl)phenyl)-3-(trifluoromethyl)-1H-pyrrolo[2,3-b]pyridine-4,6-diamine] |
| 301 to 1000 nM | 101 to 300 nM | < 100 nM | – | CN(C)CCNc1cc(Nc2ccc(C(=O)N3CCC(N4CCOCC4)CC3)c3c2OCCO3)nc2[nH]cc(C(F)(F)F)c12 [Example 172, (8-((4-((2-(dimethylamino)ethyl)amino)-3-(trifluoromethyl)-1H-pyrrolo[2,3-b]pyridin-6-yl)amino)-2,3-dihydrobenzo[b] [1,4]dioxin-5-yl)(4-morpholinopiperidin-1-yl)methanone] |
| 301 to 1000 nM | 301 to 1000 nM | < 100 nM | – | COc1cc(P2(=O)CCN(C3CC3)CC2)ccc1Nc1cc(NC2CC2)c2c(C(F)(F)F)c[nH]c2n1 [Example 211, 1-cyclopropyl-4-(4-((4-(cyclopropylamino)-3-(trifluoromethyl)-1H-pyrrolo[2,3-b]pyridin-6-yl)amino)-3-methoxyphenyl)-1,4-azaphosphinane 4-oxide] |
| < 100 nM | < 100 nM | < 100 nM | – | CCNc1cc(Nc2ccc(P3(=O)CCN(CC)CC3)cc2OC)nc2[nH]cc(C(F)(F)F)c12 [Example 210, 1-ethyl-4-(4-((4-(ethylamino)-3-(trifluoromethyl)-1H-pyrrolo[2,3-b]pyridin-6-yl)amino)-3-methoxyphenyl)-1,4-azaphosphinane 4-oxide] |
| 101 to 300 nM | < 100 nM | – | < 100 nM | C=CCNc1cc(Nc2ccc(C(=O)N3CC[C@H](N4CCOCC4)C3)c3c2OCC3)nc2[nH]cc(C(F)(F)F)c12 [Example 262, (S)-(7-((4-(allylamino)-3-(trifluoromethyl)-1H-pyrrolo[2,3-b]pyridin-6-yl)amino)-2,3-dihydrobenzofuran-4-yl)(3-morpholinopyrrolidin-1-yl)methanone] |
